In PubChem BioAssay (NCI):
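Where inhibition never reached the appropriate level, the endpoint shown equals the highest concentration tested. Otherwise, values were interpolated linearly from a five-concentration, 48-hour dose response in 96-well plates. Definition used: TGI = concentration required for complete inhibition of growth.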

Key:
Assay in all cases: growth of human tumour cells (NCI), 48 h
[1] = test system: K-562 leukemia
[2] = test system: PC-3 prostate
[3] = test system: HCT-15 colon
[4] = test system: RXF 393 renal
[5] = test system: MDA-N
[6] = test system: T-47D breast
[7] = test system: SK-OV-3 ovarian
[8] = test system: OVCAR-5 ovarian
[9] = test system: SW-620 colon
[10] = test system: OVCAR-3 ovarian
[11] = test system: SF-539 CNS
[12] = test system: LOX IMVI melanoma
[13] = test system: UACC-62 melanoma
[14] = test system: NCI/ADR-RES ovarian
[15] = test system: NCI-H23 lung
[16] = test system: SF-268 CNS
[17] = test system: SK-MEL-28 melanoma
[18] = test system: BT-549 breast
[19] = test system: NCI-H460 lung
[20] = test system: CAKI-1 renal
[21] = test system: SF-295 CNS
[22] = test system: IGROV1 ovarian
[23] = test system: UACC-257 melanoma
[24] = test system: NCI-H522 lung
[25] = test system: OVCAR-4 ovarian
[26] = test system: DU-145 prostate
[27] = test system: A549 NSCLC
[28] = test system: SN12C renal
[29] = test system: SK-MEL-2 melanoma
[30] = test system: CCRF-CEM leukemia
[31] = test system: KM12 colon
[32] = test system: MCF7 breast
[33] = test system: 786-0 renal
[34] = test system: ACHN renal
[35] = test system: U251 CNS
[36] = test system: HCT-116 colon
[37] = test system: SK-MEL-5 melanoma
[38] = test system: UO-31 renal
[39] = test system: NCI-H226 lung
[40] = test system: M14 melanoma
[41] = test system: SNB-19 CNS
[42] = test system: MDA-MB-435
[43] = test system: EKVX NSCLC
[44] = test system: SNB-75 CNS
[45] = test system: SR leukemia
[46] = test system: MDA-MB-231 breast
[47] = test system: COLO 205 colon
[48] = test system: HT29 colon
[49] = test system: TK-10 renal
[50] = test system: HOP-62 NSCLC
[51] = test system: OVCAR-8 ovarian
[52] = test system: HOP-92 NSCLC
[53] = test system: MALME-3M melanoma
[54] = test system: HL-60(TB) leukemia
[55] = test system: MOLT-4 leukemia
[56] = test system: HS 578T breast
[57] = test system: RPMI-8226 leukemia
[58] = test system: HCC-2998 colon
[59] = test system: A498 renal

For CC(C)(C)OC(=O)[C@@H]1ON2O[C@H](OC3CCCC3(c3ccccc3)c3ccccc3)C[C@H]3OC(=O)[C@@H]1[C@H]32 (stereo partly drawn), the TGI [1] was greater than 100 µM, the TGI [2] was greater than 100 µM and the TGI [3] was greater than 100 µM. For the same compound, the TGI [4] was 92.1 µM, the TGI [5] was greater than 100 µM and the TGI [6] was greater than 100 µM. It also gave a TGI [7] greater than 100 µM, a TGI [8] greater than 100 µM and a TGI [9] greater than 100 µM. It also gave a TGI [10] of 54.1 µM, a TGI [11] greater than 100 µM and a TGI [12] of 96.6 µM. It also gave a TGI [13] greater than 100 µM, a TGI [14] greater than 100 µM and a TGI [15] greater than 100 µM. It also gave a TGI [16] greater than 100 µM, a TGI [17] greater than 100 µM and a TGI [18] greater than 100 µM. It also gave a TGI [19] greater than 100 µM, a TGI [20] greater than 100 µM and a TGI [21] greater than 100 µM. The TGI [22] was greater than 100 µM, the TGI [23] was greater than 100 µM and the TGI [24] was greater than 100 µM. The TGI [25] was 54.3 µM, the TGI [26] was greater than 100 µM and the TGI [27] was greater than 100 µM. For the same compound, the TGI [28] was greater than 100 µM, the TGI [29] was 51.8 µM and the TGI [30] was greater than 100 µM. The TGI [31] was greater than 100 µM, the TGI [32] was greater than 100 µM and the TGI [33] was greater than 100 µM. It also gave a TGI [34] greater than 100 µM, a TGI [35] greater than 100 µM and a TGI [36] greater than 100 µM. For the same compound, the TGI [37] was greater than 100 µM, the TGI [38] was greater than 100 µM and the TGI [39] was greater than 100 µM. The TGI [40] was greater than 100 µM, the TGI [41] was greater than 100 µM and the TGI [42] was greater than 100 µM. The TGI [43] was greater than 100 µM, the TGI [44] was greater than 100 µM and the TGI [45] was greater than 100 µM. For the same compound, the TGI [46] was greater than 100 µM, the TGI [47] was greater than 100 µM and the TGI [48] was greater than 100 µM. For the same compound, the TGI [49] was greater than 100 µM and the TGI [50] was greater than 100 µM.
With O=C(O)CCCNc1ncc2c(n1)-c1ccccc1OC2 the TGI [1] was greater than 100 µM, the TGI [2] was greater than 100 µM and the TGI [51] was greater than 100 µM. For the same compound, the TGI [52] was greater than 100 µM, the TGI [3] was greater than 100 µM and the TGI [4] was greater than 100 µM. It also gave a TGI [5] greater than 100 µM, a TGI [53] greater than 100 µM and a TGI [7] greater than 100 µM. The TGI [8] was greater than 100 µM, the TGI [9] was greater than 100 µM and the TGI [10] was greater than 100 µM. For the same compound, the TGI [11] was greater than 100 µM, the TGI [12] was greater than 100 µM and the TGI [13] was greater than 100 µM. It also gave a TGI [14] greater than 100 µM, a TGI [15] greater than 100 µM and a TGI [16] greater than 100 µM. The TGI [17] was greater than 100 µM, the TGI [19] was greater than 100 µM and the TGI [54] was greater than 100 µM. For the same compound, the TGI [20] was greater than 100 µM, the TGI [21] was greater than 100 µM and the TGI [22] was greater than 100 µM. The TGI [23] was greater than 100 µM, the TGI [24] was greater than 100 µM and the TGI [25] was greater than 100 µM. For the same compound, the TGI [26] was greater than 100 µM, the TGI [55] was greater than 100 µM and the TGI [27] was greater than 100 µM. The TGI [28] was greater than 100 µM, the TGI [29] was greater than 100 µM and the TGI [30] was greater than 100 µM. It also gave a TGI [31] greater than 100 µM, a TGI [32] greater than 100 µM and a TGI [33] greater than 100 µM. The TGI [56] was greater than 100 µM, the TGI [34] was greater than 100 µM and the TGI [35] was greater than 100 µM. The TGI [36] was greater than 100 µM, the TGI [37] was greater than 100 µM and the TGI [38] was greater than 100 µM. For the same compound, the TGI [39] was greater than 100 µM, the TGI [40] was greater than 100 µM and the TGI [57] was greater than 100 µM. It also gave a TGI [41] greater than 100 µM, a TGI [42] greater than 100 µM and a TGI [43] greater than 100 µM. For the same compound, the TGI [44] was greater than 100 µM, the TGI [45] was greater than 100 µM and the TGI [46] was greater than 100 µM. The TGI [47] was greater than 100 µM, the TGI [48] was greater than 100 µM and the TGI [49] was greater than 100 µM. For the same compound, the TGI [50] was greater than 100 µM.
In the case of COC(=O)c1ccc(C)cc1CC1Cc2cccc(C)c2C1=O (stereo not drawn), the TGI [1] is reported as 9.79 µM, the TGI [2] is reported as 64.8 µM and the TGI [51] is reported as 33.5 µM. It also gave a TGI [52] of 58.7 µM, a TGI [3] of 12.5 µM and a TGI [4] of 30.2 µM. For the same compound, the TGI [5] was 3.86 µM, the TGI [53] was 31.3 µM and the TGI [6] was 57.9 µM. The TGI [7] was 92 µM, the TGI [8] was greater than 100 µM and the TGI [9] was greater than 100 µM. For the same compound, the TGI [10] was 30.7 µM, the TGI [11] was 17.6 µM and the TGI [12] was 9.79 µM. It also gave a TGI [13] of 49.6 µM, a TGI [14] of 66.3 µM and a TGI [15] greater than 100 µM. It also gave a TGI [16] greater than 100 µM, a TGI [17] of 55.7 µM and a TGI [18] of 87.6 µM. The TGI [19] was 22.7 µM, the TGI [20] was greater than 100 µM and the TGI [21] was 72.2 µM. It also gave a TGI [22] greater than 100 µM, a TGI [23] of 47.9 µM and a TGI [24] of 6.57 µM. It also gave a TGI [25] of 95.8 µM, a TGI [26] greater than 100 µM and a TGI [55] of 18.4 µM. The TGI [27] was greater than 100 µM, the TGI [28] was 78.2 µM and the TGI [29] was 17.1 µM. For the same compound, the TGI [30] was 51.3 µM, the TGI [31] was 23 µM and the TGI [32] was 7.38 µM. It also gave a TGI [33] greater than 100 µM, a TGI [56] of 39.9 µM and a TGI [34] of 97.6 µM. It also gave a TGI [35] of 17.4 µM, a TGI [36] of 20.8 µM and a TGI [37] of 11.4 µM. For the same compound, the TGI [38] was 56.7 µM, the TGI [39] was 9.66 µM and the TGI [40] was 23.2 µM. The TGI [41] was greater than 100 µM, the TGI [42] was 3.34 µM and the TGI [58] was 29.3 µM. For the same compound, the TGI [43] was 13.9 µM, the TGI [44] was 36.9 µM and the TGI [46] was 51.9 µM. For the same compound, the TGI [47] was 30.7 µM, the TGI [48] was 6.06 µM and the TGI [49] was 48.6 µM. It also gave a TGI [50] greater than 100 µM.
With CC(O)(C#N)CC(O)(C(F)(F)Cl)C(F)(F)Cl (stereo not drawn) the TGI [2] was greater than 10 µM, the TGI [51] was greater than 10 µM and the TGI [52] was greater than 10 µM. For the same compound, the TGI [3] was greater than 10 µM, the TGI [4] was greater than 10 µM and the TGI [59] was greater than 10 µM. The TGI [5] was greater than 10 µM, the TGI [8] was greater than 10 µM and the TGI [9] was greater than 10 µM. It also gave a TGI [10] greater than 10 µM, a TGI [11] greater than 10 µM and a TGI [14] greater than 10 µM. It also gave a TGI [15] greater than 10 µM, a TGI [16] greater than 10 µM and a TGI [17] greater than 10 µM. The TGI [20] was greater than 10 µM, the TGI [21] was greater than 10 µM and the TGI [22] was greater than 10 µM. It also gave a TGI [25] greater than 10 µM, a TGI [26] greater than 10 µM and a TGI [27] greater than 10 µM. For the same compound, the TGI [28] was greater than 10 µM, the TGI [31] was greater than 10 µM and the TGI [34] was greater than 10 µM. It also gave a TGI [35] greater than 10 µM, a TGI [36] greater than 10 µM and a TGI [37] greater than 10 µM. It also gave a TGI [38] greater than 10 µM, a TGI [39] greater than 10 µM and a TGI [40] greater than 10 µM. It also gave a TGI [41] greater than 10 µM, a TGI [42] greater than 10 µM and a TGI [43] greater than 10 µM. It also gave a TGI [44] greater than 10 µM, a TGI [46] greater than 10 µM and a TGI [47] greater than 10 µM. For the same compound, the TGI [48] was greater than 10 µM and the TGI [49] was greater than 10 µM.
